# From patent publication US10029986B2, “Alkynyl pyridine-substituted amide compound and pesticide” (NISSAN CHEMICAL INDUSTRIES, LTD., priority 2014, dated 2018)
# Columns and labels:
# [1] = tested on: Phaeosphaeria nodorum (Synonym: Septoria nodorum); assay: Test on the preventive effect against wheat glume blotch; assay type: in vivo; details: Parastagonospora nodorum, 144 h; test solution A 500 ppm, 5 ml per pot, wheat 1.3-leaf stage, 2 days inoculation chamber then 6 days at 20° C.
# Method: (§1) Compounds of the present invention were dissolved in a solvent for emulsion (a mixture of Sorpol (registered trademark) 3005XL (manufactured by Toho Chemical Industry Co., Ltd.): N-methylpyrrolidone: Solvesso (registered trademark) 200 (manufactured by ExxonMobil Chemical) in a ratio of 1:5:2) to prepare 20 wt % emulsifiable concentrates. Then, distilled water was added to dilute the emulsifiable concentrates to the prescribed concentration (500 ppm), and the obtained solutions were used in the following the Test Examples 1 to 8. Wheat (varieties: Haruyutaka) was seeded in 90 cm^3 plastic pot, and at 1.3-leaf stage, 5 ml per pot of test solution A of the compounds of the present invention was applied. One day after treatment, a suspension of conidium of Phaeosphaeria nodorum (Synonym: Septoria nodorum) was sprayed to the wheat, and the pot was left in the inoculation chamber at 20° C. under humidity of 100% RH for 2 days. Then, the pot was placed in an air-conditioned greenhouse (20° C.) for 6 days. The proportion of the formed lesion in the inoculated leaves were measured to calculate the control value in accordance with the same formula as in the Test Example 1. The test was carried out in duplicate.
# [2] = tested on: Erysiphe polygoni (synonym: Erysiphe betae); assay: Test on the preventive effect against cucumber powdery mildew; assay type: in vivo; details: 216 h, test solution A 500 ppm, 5 ml per pot sprayed, cucumber cotyledon stage, 9 days after inoculation
# Method: Compounds of the present invention were dissolved in a solvent for emulsion (a mixture of Sorpol (registered trademark) 3005XL (manufactured by Toho Chemical Industry Co., Ltd.): N-methylpyrrolidone: Solvesso (registered trademark) 200 (manufactured by ExxonMobil Chemical) in a ratio of 1:5:2) to prepare 20 wt % emulsifiable concentrates. Then, distilled water was added to dilute the emulsifiable concentrates to the prescribed concentration (500 ppm), and the obtained solutions were used in the following the Test Examples 1 to 8. Cucumber (varieties: Sagami Hanjiro) was seeded in 90 cm^3 plastic pot, and at the cotyledon stage, 5 ml per pot of test solution A of the compounds of the present invention was sprayed. After drying in air, the pot was placed in an air-conditioned greenhouse (20° C.), and a suspension of conidium of Erysiphe polygoni (synonym: Erysiphe betae) was sprayed. After the pot were replaced at the same temperature for 9 days, the proportion of the formed lesion in the inoculated leaves were counted to calculate the control value in accordance with the following formula. The test was carried out in duplicate. Control value=[1−(lesion area ratio in treated plot/lesion are a ratio in non-treated plot)]×100
# Botrytis cinerea [3] = assay: Test on the preventive effect against cucumber gray mold (spore inoculation); assay type: in vivo; details: 72 h, test solution A 500 ppm, 5 ml per pot, cucumber cut leaves, conidium inoculation, 3 days at 20° C.
# Method: Compounds of the present invention were dissolved in a solvent for emulsion (a mixture of Sorpol (registered trademark) 3005XL (manufactured by Toho Chemical Industry Co., Ltd.): N-methylpyrrolidone: Solvesso (registered trademark) 200 (manufactured by ExxonMobil Chemical) in a ratio of 1:5:2) to prepare 20 wt % emulsifiable concentrates. Then, distilled water was added to dilute the emulsifiable concentrates to the prescribed concentration (500 ppm), and the obtained solutions were used in the following the Test Examples 1 to 8. Cucumber (varieties: Sagami Hanjiro) was seeded in 90 cm^3 plastic pot, and at the cotyledon stage, 5 ml per pot of test solution A of the compounds of the present invention was applied. After drying in air, the treated leaves were cut and transferred in plastic containers. 30 μl of a mixture of a suspension of conidium of Botrytis cinerea and a dissolved PDA medium in a ratio of 1:1 was dropped on each treated leaf and inoculated. After the inoculation, the plastic containers were placed in 20° C. with humid conditions for 3 days, and the proportion of the formed lesion in the inoculated leaves were counted to calculate the control value in accordance with the same formula as in the Test Example 1. The test was carried out in duplicate.
# [4] = tested on: Colletotrichum lagenarium (Synonym: Colletotrichum orbiculare); assay: Test on the preventive effect against cucumber anthracnose; assay type: in vivo; details: 168 h, test solution A 500 ppm, 5 ml per pot sprayed, 2 days inoculation chamber then 7 days at 23° C.
# Method: Compounds of the present invention were dissolved in a solvent for emulsion (a mixture of Sorpol (registered trademark) 3005XL (manufactured by Toho Chemical Industry Co., Ltd.): N-methylpyrrolidone: Solvesso (registered trademark) 200 (manufactured by ExxonMobil Chemical) in a ratio of 1:5:2) to prepare 20 wt % emulsifiable concentrates. Then, distilled water was added to dilute the emulsifiable concentrates to the prescribed concentration (500 ppm), and the obtained solutions were used in the following the Test Examples 1 to 8. Cucumber (varieties: Sagami Hanjiro) was seeded in 90 cm^3 plastic pot, and at the cotyledon stage, 5 ml per pot of test solution A of the compounds of the present invention was sprayed. One day later, a suspension of conidium of Colletotrichum lagenarium (Synonym: Colletotrichum orbiculare) was sprayed, and the pot was left for 2 days in the inoculation chamber at 25° C. under humidity of 100% RH. Thereafter, the pot was placed in an air-conditioned greenhouse (23° C.) and left at the same temperature for 7 days. Thereafter, the proportion of the formed lesion in the inoculated leaves were measured to calculate the control value in accordance with the same formula as in Test Example 1. The test was carried out in duplicate.
# [5] = tested on: Blumeria graminis f. sp. tritici; assay: Test on the preventive effect against wheat powdery mildew; assay type: in vivo; details: 168 h, test solution A 500 ppm, 5 ml per pot, wheat 1.3-leaf stage, 7 days after inoculation
# Method: Compounds of the present invention were dissolved in a solvent for emulsion (a mixture of Sorpol (registered trademark) 3005XL (manufactured by Toho Chemical Industry Co., Ltd.): N-methylpyrrolidone: Solvesso (registered trademark) 200 (manufactured by ExxonMobil Chemical) in a ratio of 1:5:2) to prepare 20 wt % emulsifiable concentrates. Then, distilled water was added to dilute the emulsifiable concentrates to the prescribed concentration (500 ppm), and the obtained solutions were used in the following the Test Examples 1 to 8. Wheat (varieties: Norin 61) was seeded in 90 cm^3 plastic pot, and at the 1.3-leaf stage, 5 ml per pot of test solution A of the compounds of the present invention were applied. One day after treatment, the pot was placed in an air-conditioned greenhouse (20° C.), and conidium of Blumeria graminis f. sp. tritici was inoculated to the wheat. 7 days after, the proportion of the formed lesion in the inoculated leaves were measured to calculate the control value in accordance with the same formula as in the Test Example 1. The test was carried out in duplicate.
# [6] = tested on: Colletotrichum lagenarium (Synonym: Colletotrichum orbiculare); assay: Test on the preventive effect against cucumber anthracnose; assay type: in vivo; details: 168 h, 100 ppm solution (symbol *), 5 ml per pot sprayed, 2 days inoculation chamber then 7 days at 23° C.
# Botrytis cinerea [7] = assay: Test on the preventive effect against cucumber gray mold (mycelium inoculation); assay type: in vivo; details: 48 h, test solution A 500 ppm, 5 ml per pot, cucumber cotyledon, agar block inoculation, 2 days at 20° C.
# Method: Compounds of the present invention were dissolved in a solvent for emulsion (a mixture of Sorpol (registered trademark) 3005XL (manufactured by Toho Chemical Industry Co., Ltd.): N-methylpyrrolidone: Solvesso (registered trademark) 200 (manufactured by ExxonMobil Chemical) in a ratio of 1:5:2) to prepare 20 wt % emulsifiable concentrates. Then, distilled water was added to dilute the emulsifiable concentrates to the prescribed concentration (500 ppm), and the obtained solutions were used in the following the Test Examples 1 to 8. Cucumber (varieties: Sagami Hanjiro) was seeded in 90 cm^3 plastic pot, and at the cotyledon stage, 5 ml per pot of test solution A of the compounds of the present invention was applied. On the next day, the pot was transferred in a plastic container, and an agar blocks (diameter: 5 mm) containing Botrytis cinerea which was preliminarily cultivated in a PDA medium was inoculated on the cotyledon of the cucumber treated with the solution. After the inoculation, the plastic container was covered with a plastic sheet, then placed at 20° C. and humidified for 2 days. Thus the proportion of the formed lesion in the inoculated leaves were measured to calculate the control value in accordance with the same formula as in the Test Example 1. The test was carried out in duplicate.
# Sclerotinia sclerotiorum = assay: Test on the preventive effect against cucumber stem rot; assay type: in vivo; details: 48 h, test solution A 500 ppm, 5 ml per pot, agar block inoculation, 2 days at 20° C.
# Method: Compounds of the present invention were dissolved in a solvent for emulsion (a mixture of Sorpol (registered trademark) 3005XL (manufactured by Toho Chemical Industry Co., Ltd.): N-methylpyrrolidone: Solvesso (registered trademark) 200 (manufactured by ExxonMobil Chemical) in a ratio of 1:5:2) to prepare 20 wt % emulsifiable concentrates. Then, distilled water was added to dilute the emulsifiable concentrates to the prescribed concentration (500 ppm), and the obtained solutions were used in the following the Test Examples 1 to 8. Cucumber (varieties: Sagami Hanjiro) was seeded in 90 cm^3 plastic pot, and at the cotyledon stage, 5 ml per pot of test solution A of the compounds of the present invention was applied. After drying in air, the pot was transferred in a plastic container, and an agar blocks (diameter: 5 mm) containing Sclerotinia sclerotiorum which was preliminarily cultivated in a PDA medium was inoculated to the seed leaves of the cucumber treated with the solution. After the inoculation, the plastic container was covered with a plastic sheet, and placed at 20° C. and humidified for 2 days, thus the proportion of the formed lesion in the inoculated leaves were measured to calculate the control value in accordance with the same formula as in the Test Example 1. The test was carried out in duplicate.
# Puccinia recondita = assay: Test on the preventive effect against wheat leaf rust; assay type: in vivo; details: 216 h, test solution A 500 ppm, 5 ml per pot, wheat 1.3-leaf stage, 1 day inoculation chamber then 8 days at 20° C.
# Method: as §1, with “Norin 61)” for “Haruyutaka)”, “spores” for “conidium”, “Puccinia recondita” for “Phaeosphaeria nodorum (Synonym: Septoria nodorum)”, “1 day. Thereafter,” for “2 days. Then,”, “8” for “6”, “counted” for “measured”
# Asperaillus niger = assay: Test on the antifungal activity against Asperaillus niger; assay type: cell-based; details: 48 h; test solution B 100 ppm, 10 μl per well, 96 well plate, 25° C. dark, 2 days after treatment; read-out: efficacy (flora area ratio relative to non-treated well)
# Method: Compounds of the present invention were dissolved in dimethyl sulfoxide to prepare 1 wt % solutions. Then, distilled water was added to dilute the solutions to the prescribed concentration (100 ppm), and the obtained solutions were used in the following the Test Examples 9 to 12. 60 μl of a potato dextrose 1% agar medium was added to each well of a 96 well plate, and 30 μl of sterilized water containing spores of Asperaillus niger (10 spores/3 μl) was added to each well. Further, 10 μl per well of test solution B of the compounds of the present invention was added, and the plate was left at rest at 25° C. under dark conditions. 2 days after treatment, the flora area ratio (%) was determined to calculate the efficacy (%) relative to the non-treated well in accordance with the following formula. Efficacy (%)=[1−(flora area ratio in treated plot/flora area ratio in non-treated well)]×100
Compound,pest or weed control at 500 µg/mL [1] [%],melting point [°C],pest or weed control at 500 µg/mL (Botrytis cinerea [3]) [%],further results
"N#CC(C#N)(CNC(=O)c1ccccc1C(F)(F)F)c1ncc(C#CC2CC2)cc1Cl [1-023, N-[2-[3-chloro-5-(cyclopropylethynyl)pyridin-2-yl]-2,2-dicyanoethyl]-2-(trifluoromethyl)benzamide]",≥ 70,42 to 44,–,–
CC(NC(=O)c1cccnc1C(F)F)C(SCC(F)(F)F)c1ncc(C#CC2CC2)cc1Cl (stereo not shown) [3-033a],≥ 70,72 to 74,≥ 70,pest or weed control at 500 µg/mL [2]: ≥ 70%; pest or weed control at 500 µg/mL [4]: ≥ 70%
"CCOC(=O)C(CNC(=O)c1cn(C)nc1C(F)F)(C(=O)OCC)c1ncc(C#CC2CC2)cc1Cl [8-023, 2-[3-chloro-5-(cyclopropylethynyl)pyridin-2-yl]-2-[(3-difluoromethyl-1-methyl-1H-pyrazole-4-carboxamide)methyl]malonic acid diethyl ester]",≥ 70,87 to 88,≥ 70,pest or weed control at 500 µg/mL [2]: ≥ 70%; pest or weed control at 500 µg/mL [5]: ≥ 70%
CC(Cc1ncc(C#CCO)cc1Cl)NC(=O)c1cn(C)nc1C(F)F (stereo not shown) [8-025],–,–,–,pest or weed control at 100 ppm [6]: ≥ 70%
"Cn1cc(C(=O)NC2CC2c2ncc(C#CC3CC3)cc2Cl)c(C(F)F)n1 (stereo not shown) [8-033, N-[2-[3-chloro-5-(cyclopropylethynyl)pyridin-2-yl]cyclopropyl]-3-difluoromethyl-1-methyl-1H-pyrazole-4-carboxamide]",–,176 to 178,≥ 70,pest or weed control at 500 µg/mL (Botrytis cinerea [7]): ≥ 70%; pest or weed control at 500 µg/mL (Sclerotinia sclerotiorum): ≥ 70%; pest or weed control at 500 µg/mL (Puccinia recondita): ≥ 70%; inhibition of growth at 100 µg/mL (Asperaillus niger): ≥ 50%
COC(c1ncc(C#CC2CC2)cc1Cl)C(C)NC(=O)c1sc(C)nc1C(F)F (stereo not shown) [9-006b],–,–,–,pest or weed control at 500 µg/mL (Puccinia recondita): ≥ 70%
"Cn1cc(C(=O)N(C(=O)OC(C)(C)C)C2CC2c2ncc(C#CC3CC3)cc2Cl)c(C(F)F)n1 (stereo not shown) [12-002, tert-butyl N-[2-[3-chloro-5-(cyclopropylethynyl)pyridin-2-yl]cyclopropyl]-N-[3-difluoromethyl-1-methyl-1H-pyrazole-4-carbonyl]carbamate]",–,110 to 112,≥ 70,–
